biological target: CLK4 (human) (UniProt Q9HAZ1); assay: radiometric filter-binding kinase assay, Kinase HotSpot; details: compound 0.5 µM; ATP 10 µM

SMILES | residual activity [%]
O=S(=O)(NCCNC/C=C/c1ccc(Br)cc1)c1cccc2cnccc12 | 119

biological target: PDGFRA (human) (UniProt P16234); assay: as above; details: compound 0.5 µM; ATP 10 µM
Sequence (P16234 whole entry, looked up): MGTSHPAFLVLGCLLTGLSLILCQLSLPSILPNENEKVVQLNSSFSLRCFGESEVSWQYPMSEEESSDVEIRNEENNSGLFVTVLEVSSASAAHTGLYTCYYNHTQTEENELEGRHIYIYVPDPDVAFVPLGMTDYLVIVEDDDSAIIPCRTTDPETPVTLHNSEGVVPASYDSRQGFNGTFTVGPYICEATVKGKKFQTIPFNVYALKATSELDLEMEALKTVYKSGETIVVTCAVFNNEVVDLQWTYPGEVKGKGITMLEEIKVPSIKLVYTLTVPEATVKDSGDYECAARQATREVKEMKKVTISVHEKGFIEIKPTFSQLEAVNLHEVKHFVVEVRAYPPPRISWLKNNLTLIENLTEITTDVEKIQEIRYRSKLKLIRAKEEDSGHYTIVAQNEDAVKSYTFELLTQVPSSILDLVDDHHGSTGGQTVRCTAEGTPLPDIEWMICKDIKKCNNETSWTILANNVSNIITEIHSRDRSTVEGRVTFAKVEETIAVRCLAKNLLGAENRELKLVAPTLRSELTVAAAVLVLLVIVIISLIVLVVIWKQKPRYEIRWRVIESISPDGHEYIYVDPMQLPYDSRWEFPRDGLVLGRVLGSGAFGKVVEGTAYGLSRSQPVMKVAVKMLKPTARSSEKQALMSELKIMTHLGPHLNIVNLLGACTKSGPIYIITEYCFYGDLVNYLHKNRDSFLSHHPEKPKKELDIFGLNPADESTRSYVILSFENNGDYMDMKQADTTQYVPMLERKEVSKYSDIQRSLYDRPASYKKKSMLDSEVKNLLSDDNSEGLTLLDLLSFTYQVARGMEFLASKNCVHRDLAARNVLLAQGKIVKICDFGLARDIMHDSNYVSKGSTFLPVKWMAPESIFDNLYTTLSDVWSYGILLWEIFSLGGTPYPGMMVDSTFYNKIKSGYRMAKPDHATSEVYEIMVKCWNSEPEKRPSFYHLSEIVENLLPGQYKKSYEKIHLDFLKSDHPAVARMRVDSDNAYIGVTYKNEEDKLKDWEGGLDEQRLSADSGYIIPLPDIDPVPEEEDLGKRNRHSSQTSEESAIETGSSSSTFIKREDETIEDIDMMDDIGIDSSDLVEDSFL

SMILES | residual activity [%]
N#C/C(=C1/Nc2ccccc2S1)c1ccnc(NCCc2cccnc2)n1 | 99
COc1cc2c(Nc3ccc(Br)cc3F)ncnc2cc1OCC1CCN(C)CC1 | 28.6
N/C(=N\N=C/c1ccc(-c2cccc([N+](=O)[O-])c2)o1)N[N+](=O)[O-] | 93.2
CCCCc1c(-c2ccc(O)cc2)[nH]c2nccnc12 | 95.1
O=S(=O)(NCCNC/C=C/c1ccc(Br)cc1)c1cccc2cnccc12 | 98.8

biological target: NLK (human) (UniProt Q9UBE8); assay: as above; details: compound 0.5 µM; ATP 10 µM

SMILES | residual activity [%]
N#C/C(=C1/Nc2ccccc2S1)c1ccnc(NCCc2cccnc2)n1 | 94.9
COc1cc2c(Nc3ccc(Br)cc3F)ncnc2cc1OCC1CCN(C)CC1 | 96.2
N/C(=N\N=C/c1ccc(-c2cccc([N+](=O)[O-])c2)o1)N[N+](=O)[O-] | 103
CCCCc1c(-c2ccc(O)cc2)[nH]c2nccnc12 | 90.3
O=S(=O)(NCCNC/C=C/c1ccc(Br)cc1)c1cccc2cnccc12 | 94.9

biological target: EPHA3 (human) (UniProt P29320); assay: as above; details: compound 0.5 µM; ATP 10 µM

SMILES | residual activity [%]
N#C/C(=C1/Nc2ccccc2S1)c1ccnc(NCCc2cccnc2)n1 | 75.1
COc1cc2c(Nc3ccc(Br)cc3F)ncnc2cc1OCC1CCN(C)CC1 | 57.7
N/C(=N\N=C/c1ccc(-c2cccc([N+](=O)[O-])c2)o1)N[N+](=O)[O-] | 99.3
CCCCc1c(-c2ccc(O)cc2)[nH]c2nccnc12 | 95
O=S(=O)(NCCNC/C=C/c1ccc(Br)cc1)c1cccc2cnccc12 | 109

biological target: PRKCB2 (human) (UniProt P05771); assay: as above; details: compound 0.5 µM; ATP 10 µM
Sequence (P05771 whole entry, looked up): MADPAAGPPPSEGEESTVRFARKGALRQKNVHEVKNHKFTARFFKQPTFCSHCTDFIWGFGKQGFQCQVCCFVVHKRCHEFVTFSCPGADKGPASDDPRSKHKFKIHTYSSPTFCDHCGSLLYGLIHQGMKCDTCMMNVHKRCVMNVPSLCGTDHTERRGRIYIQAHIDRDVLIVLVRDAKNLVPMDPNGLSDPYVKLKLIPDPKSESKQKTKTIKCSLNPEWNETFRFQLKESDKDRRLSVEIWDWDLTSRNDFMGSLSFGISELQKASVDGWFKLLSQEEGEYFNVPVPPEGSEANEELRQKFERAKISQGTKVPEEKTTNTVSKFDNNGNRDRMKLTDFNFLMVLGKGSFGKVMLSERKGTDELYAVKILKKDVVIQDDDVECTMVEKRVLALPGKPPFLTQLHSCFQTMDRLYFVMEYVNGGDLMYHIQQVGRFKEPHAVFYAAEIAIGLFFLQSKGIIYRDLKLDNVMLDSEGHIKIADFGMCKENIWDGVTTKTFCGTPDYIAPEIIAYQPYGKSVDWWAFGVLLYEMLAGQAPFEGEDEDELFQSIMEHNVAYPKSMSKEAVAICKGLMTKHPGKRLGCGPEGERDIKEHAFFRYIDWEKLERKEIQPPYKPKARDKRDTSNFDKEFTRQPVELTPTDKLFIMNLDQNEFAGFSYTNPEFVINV

SMILES | residual activity [%]
COc1cc2c(Nc3ccc(Br)cc3F)ncnc2cc1OCC1CCN(C)CC1 | 91.6
N/C(=N\N=C/c1ccc(-c2cccc([N+](=O)[O-])c2)o1)N[N+](=O)[O-] | 100
CCCCc1c(-c2ccc(O)cc2)[nH]c2nccnc12 | 118
O=S(=O)(NCCNC/C=C/c1ccc(Br)cc1)c1cccc2cnccc12 | 90.2

biological target: RPS6KA3 KD1 KD2 (human) (UniProt P51812); assay: as above; details: compound 0.5 µM; ATP 10 µM
Sequence (P51812 whole entry, looked up): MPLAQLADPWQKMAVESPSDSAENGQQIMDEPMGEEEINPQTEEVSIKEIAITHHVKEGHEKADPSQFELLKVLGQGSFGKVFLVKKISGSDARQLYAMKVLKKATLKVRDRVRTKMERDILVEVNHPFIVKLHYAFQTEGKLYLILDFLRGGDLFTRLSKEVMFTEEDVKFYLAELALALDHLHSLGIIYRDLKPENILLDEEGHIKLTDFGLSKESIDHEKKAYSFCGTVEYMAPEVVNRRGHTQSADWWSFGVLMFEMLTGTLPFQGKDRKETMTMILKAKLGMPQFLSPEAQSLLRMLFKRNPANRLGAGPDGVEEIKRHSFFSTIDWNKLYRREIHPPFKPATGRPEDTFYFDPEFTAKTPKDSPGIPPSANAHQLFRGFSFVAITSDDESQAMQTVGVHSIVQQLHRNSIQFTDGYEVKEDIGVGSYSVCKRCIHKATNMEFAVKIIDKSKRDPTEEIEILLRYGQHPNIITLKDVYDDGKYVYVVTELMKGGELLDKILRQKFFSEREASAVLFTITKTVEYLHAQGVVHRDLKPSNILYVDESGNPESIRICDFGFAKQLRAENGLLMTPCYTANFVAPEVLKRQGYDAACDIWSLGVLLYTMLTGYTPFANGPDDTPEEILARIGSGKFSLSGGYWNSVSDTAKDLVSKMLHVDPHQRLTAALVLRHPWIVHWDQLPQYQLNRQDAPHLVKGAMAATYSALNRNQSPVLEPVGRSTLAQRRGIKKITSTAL

SMILES | residual activity [%]
COc1cc2c(Nc3ccc(Br)cc3F)ncnc2cc1OCC1CCN(C)CC1 | 97.8
N/C(=N\N=C/c1ccc(-c2cccc([N+](=O)[O-])c2)o1)N[N+](=O)[O-] | 101
CCCCc1c(-c2ccc(O)cc2)[nH]c2nccnc12 | 90.8
O=S(=O)(NCCNC/C=C/c1ccc(Br)cc1)c1cccc2cnccc12 | 70.9

biological target: PAK2 (human) (UniProt Q13177); assay: as above; details: compound 0.5 µM; ATP 10 µM

SMILES | residual activity [%]
N#C/C(=C1/Nc2ccccc2S1)c1ccnc(NCCc2cccnc2)n1 | 103
COc1cc2c(Nc3ccc(Br)cc3F)ncnc2cc1OCC1CCN(C)CC1 | 103
N/C(=N\N=C/c1ccc(-c2cccc([N+](=O)[O-])c2)o1)N[N+](=O)[O-] | 103
CCCCc1c(-c2ccc(O)cc2)[nH]c2nccnc12 | 84.5
O=S(=O)(NCCNC/C=C/c1ccc(Br)cc1)c1cccc2cnccc12 | 78.6

biological target: LRRK2 (human) (UniProt Q5S007); assay: as above; details: compound 0.5 µM; ATP 10 µM

SMILES | residual activity [%]
N#C/C(=C1/Nc2ccccc2S1)c1ccnc(NCCc2cccnc2)n1 | 83.4
COc1cc2c(Nc3ccc(Br)cc3F)ncnc2cc1OCC1CCN(C)CC1 | 113
N/C(=N\N=C/c1ccc(-c2cccc([N+](=O)[O-])c2)o1)N[N+](=O)[O-] | 91
CCCCc1c(-c2ccc(O)cc2)[nH]c2nccnc12 | 80
O=S(=O)(NCCNC/C=C/c1ccc(Br)cc1)c1cccc2cnccc12 | 86.2

biological target: MUSK (human) (UniProt O15146); assay: as above; details: compound 0.5 µM; ATP 10 µM

SMILES | residual activity [%]
N#C/C(=C1/Nc2ccccc2S1)c1ccnc(NCCc2cccnc2)n1 | 14.8
COc1cc2c(Nc3ccc(Br)cc3F)ncnc2cc1OCC1CCN(C)CC1 | 94.6
N/C(=N\N=C/c1ccc(-c2cccc([N+](=O)[O-])c2)o1)N[N+](=O)[O-] | 94.4
CCCCc1c(-c2ccc(O)cc2)[nH]c2nccnc12 | 82
O=S(=O)(NCCNC/C=C/c1ccc(Br)cc1)c1cccc2cnccc12 | 80.7

biological target: IRAK1 (human) (UniProt P51617); assay: as above; details: compound 0.5 µM; ATP 10 µM
Sequence (P51617 whole entry, looked up): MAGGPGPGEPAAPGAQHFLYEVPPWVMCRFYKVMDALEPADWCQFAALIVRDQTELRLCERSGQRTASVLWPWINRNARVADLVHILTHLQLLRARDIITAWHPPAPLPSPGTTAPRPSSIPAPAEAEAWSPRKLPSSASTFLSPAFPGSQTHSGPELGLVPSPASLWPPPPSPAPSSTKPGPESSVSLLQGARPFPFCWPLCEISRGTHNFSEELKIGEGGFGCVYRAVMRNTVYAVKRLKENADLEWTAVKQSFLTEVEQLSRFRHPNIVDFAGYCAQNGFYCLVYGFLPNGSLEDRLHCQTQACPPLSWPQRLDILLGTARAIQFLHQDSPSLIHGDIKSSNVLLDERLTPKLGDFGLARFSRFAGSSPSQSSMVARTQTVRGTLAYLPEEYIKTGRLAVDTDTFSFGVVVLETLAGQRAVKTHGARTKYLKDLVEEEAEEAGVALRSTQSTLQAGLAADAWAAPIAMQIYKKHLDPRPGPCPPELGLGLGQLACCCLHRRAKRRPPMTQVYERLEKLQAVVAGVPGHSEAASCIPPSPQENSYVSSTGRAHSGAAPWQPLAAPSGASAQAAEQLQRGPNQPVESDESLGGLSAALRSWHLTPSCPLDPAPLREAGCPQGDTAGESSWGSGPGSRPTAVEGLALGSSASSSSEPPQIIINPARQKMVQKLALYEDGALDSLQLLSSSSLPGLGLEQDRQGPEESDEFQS

SMILES | residual activity [%]
N#C/C(=C1/Nc2ccccc2S1)c1ccnc(NCCc2cccnc2)n1 | 91.8
COc1cc2c(Nc3ccc(Br)cc3F)ncnc2cc1OCC1CCN(C)CC1 | 87.7
CCCCc1c(-c2ccc(O)cc2)[nH]c2nccnc12 | 63.4
O=S(=O)(NCCNC/C=C/c1ccc(Br)cc1)c1cccc2cnccc12 | 95.7

biological target: ULK2 (human) (UniProt Q8IYT8); assay: as above; details: compound 0.5 µM; ATP 10 µM

SMILES | residual activity [%]
N#C/C(=C1/Nc2ccccc2S1)c1ccnc(NCCc2cccnc2)n1 | 116
COc1cc2c(Nc3ccc(Br)cc3F)ncnc2cc1OCC1CCN(C)CC1 | 108
N/C(=N\N=C/c1ccc(-c2cccc([N+](=O)[O-])c2)o1)N[N+](=O)[O-] | 87.3
CCCCc1c(-c2ccc(O)cc2)[nH]c2nccnc12 | 112
O=S(=O)(NCCNC/C=C/c1ccc(Br)cc1)c1cccc2cnccc12 | 98.9

biological target: PAK3 (human) (UniProt O75914); assay: as above; details: compound 0.5 µM; ATP 10 µM
Sequence (O75914 whole entry, looked up): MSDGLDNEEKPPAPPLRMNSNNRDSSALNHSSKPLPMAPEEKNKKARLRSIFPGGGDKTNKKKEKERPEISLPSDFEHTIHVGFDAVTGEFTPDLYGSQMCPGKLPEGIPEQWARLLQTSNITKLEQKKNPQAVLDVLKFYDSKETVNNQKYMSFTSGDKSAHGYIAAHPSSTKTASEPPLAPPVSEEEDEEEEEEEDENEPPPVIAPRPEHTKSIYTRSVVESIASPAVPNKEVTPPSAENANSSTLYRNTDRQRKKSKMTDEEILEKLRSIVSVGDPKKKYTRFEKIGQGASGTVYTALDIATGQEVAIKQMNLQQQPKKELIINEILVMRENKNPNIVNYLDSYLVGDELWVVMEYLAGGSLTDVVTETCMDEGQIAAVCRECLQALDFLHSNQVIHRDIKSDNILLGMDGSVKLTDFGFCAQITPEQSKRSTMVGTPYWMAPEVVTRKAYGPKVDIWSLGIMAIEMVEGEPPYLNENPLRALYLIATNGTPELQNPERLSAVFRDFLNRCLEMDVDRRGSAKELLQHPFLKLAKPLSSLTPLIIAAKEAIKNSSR

SMILES | residual activity [%]
N#C/C(=C1/Nc2ccccc2S1)c1ccnc(NCCc2cccnc2)n1 | 102
COc1cc2c(Nc3ccc(Br)cc3F)ncnc2cc1OCC1CCN(C)CC1 | 103
N/C(=N\N=C/c1ccc(-c2cccc([N+](=O)[O-])c2)o1)N[N+](=O)[O-] | 95.1
CCCCc1c(-c2ccc(O)cc2)[nH]c2nccnc12 | 97.7
O=S(=O)(NCCNC/C=C/c1ccc(Br)cc1)c1cccc2cnccc12 | 103

biological target: DYRK2 (human) (UniProt Q92630); assay: as above; details: compound 0.5 µM; ATP 10 µM
Sequence (Q92630 whole entry, looked up): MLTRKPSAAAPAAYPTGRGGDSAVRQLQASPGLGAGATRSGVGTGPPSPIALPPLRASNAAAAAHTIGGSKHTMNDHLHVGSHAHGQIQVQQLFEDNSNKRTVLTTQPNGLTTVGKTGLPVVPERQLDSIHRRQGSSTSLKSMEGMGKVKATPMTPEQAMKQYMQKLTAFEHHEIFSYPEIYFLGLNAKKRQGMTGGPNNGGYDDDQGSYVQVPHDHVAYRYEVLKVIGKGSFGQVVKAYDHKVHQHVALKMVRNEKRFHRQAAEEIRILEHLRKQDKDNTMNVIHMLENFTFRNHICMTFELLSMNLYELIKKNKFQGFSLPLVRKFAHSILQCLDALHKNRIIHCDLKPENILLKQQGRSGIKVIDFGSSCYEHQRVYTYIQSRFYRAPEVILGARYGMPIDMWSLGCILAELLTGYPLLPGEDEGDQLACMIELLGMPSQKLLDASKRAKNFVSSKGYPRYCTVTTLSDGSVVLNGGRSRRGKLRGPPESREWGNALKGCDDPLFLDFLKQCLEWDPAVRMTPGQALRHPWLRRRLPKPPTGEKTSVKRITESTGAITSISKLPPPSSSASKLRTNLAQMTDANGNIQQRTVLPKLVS

SMILES | residual activity [%]
N#C/C(=C1/Nc2ccccc2S1)c1ccnc(NCCc2cccnc2)n1 | 22.2
COc1cc2c(Nc3ccc(Br)cc3F)ncnc2cc1OCC1CCN(C)CC1 | 97.2
N/C(=N\N=C/c1ccc(-c2cccc([N+](=O)[O-])c2)o1)N[N+](=O)[O-] | 93.1
CCCCc1c(-c2ccc(O)cc2)[nH]c2nccnc12 | 93.1
O=S(=O)(NCCNC/C=C/c1ccc(Br)cc1)c1cccc2cnccc12 | 95.2

biological target: RPS6KB1 (human) (UniProt P23443); assay: as above; details: compound 0.5 µM; ATP 10 µM

SMILES | residual activity [%]
N#C/C(=C1/Nc2ccccc2S1)c1ccnc(NCCc2cccnc2)n1 | 98.2
N/C(=N\N=C/c1ccc(-c2cccc([N+](=O)[O-])c2)o1)N[N+](=O)[O-] | 100
CCCCc1c(-c2ccc(O)cc2)[nH]c2nccnc12 | 105
O=S(=O)(NCCNC/C=C/c1ccc(Br)cc1)c1cccc2cnccc12 | 25.6

biological target: DMPK (human) (UniProt Q09013); assay: as above; details: compound 0.5 µM; ATP 10 µM

SMILES | residual activity [%]
COc1cc2c(Nc3ccc(Br)cc3F)ncnc2cc1OCC1CCN(C)CC1 | 94.6
N/C(=N\N=C/c1ccc(-c2cccc([N+](=O)[O-])c2)o1)N[N+](=O)[O-] | 102
CCCCc1c(-c2ccc(O)cc2)[nH]c2nccnc12 | 91.8
O=S(=O)(NCCNC/C=C/c1ccc(Br)cc1)c1cccc2cnccc12 | 96.6

biological target: MARK3 (human) (UniProt P27448); assay: as above; details: compound 0.5 µM; ATP 10 µM

SMILES | residual activity [%]
N#C/C(=C1/Nc2ccccc2S1)c1ccnc(NCCc2cccnc2)n1 | 94.9
COc1cc2c(Nc3ccc(Br)cc3F)ncnc2cc1OCC1CCN(C)CC1 | 106
N/C(=N\N=C/c1ccc(-c2cccc([N+](=O)[O-])c2)o1)N[N+](=O)[O-] | 107
CCCCc1c(-c2ccc(O)cc2)[nH]c2nccnc12 | 88.2
O=S(=O)(NCCNC/C=C/c1ccc(Br)cc1)c1cccc2cnccc12 | 96.2

biological target: MAP2K2 (human) (UniProt P36507); assay: as above; details: compound 0.5 µM; ATP 10 µM

SMILES | residual activity [%]
N#C/C(=C1/Nc2ccccc2S1)c1ccnc(NCCc2cccnc2)n1 | 76.2
N/C(=N\N=C/c1ccc(-c2cccc([N+](=O)[O-])c2)o1)N[N+](=O)[O-] | 78.2
CCCCc1c(-c2ccc(O)cc2)[nH]c2nccnc12 | 84.7
O=S(=O)(NCCNC/C=C/c1ccc(Br)cc1)c1cccc2cnccc12 | 103

biological target: RET (human) (UniProt P07949); assay: as above; details: compound 0.5 µM; ATP 10 µM

SMILES | residual activity [%]
N#C/C(=C1/Nc2ccccc2S1)c1ccnc(NCCc2cccnc2)n1 | 70.1
N/C(=N\N=C/c1ccc(-c2cccc([N+](=O)[O-])c2)o1)N[N+](=O)[O-] | 99.9
CCCCc1c(-c2ccc(O)cc2)[nH]c2nccnc12 | 52.6
O=S(=O)(NCCNC/C=C/c1ccc(Br)cc1)c1cccc2cnccc12 | 102

biological target: AKT2 (human) (UniProt P31751); assay: as above; details: compound 0.5 µM; ATP 10 µM

SMILES | residual activity [%]
N#C/C(=C1/Nc2ccccc2S1)c1ccnc(NCCc2cccnc2)n1 | 104
COc1cc2c(Nc3ccc(Br)cc3F)ncnc2cc1OCC1CCN(C)CC1 | 110
N/C(=N\N=C/c1ccc(-c2cccc([N+](=O)[O-])c2)o1)N[N+](=O)[O-] | 99.7
CCCCc1c(-c2ccc(O)cc2)[nH]c2nccnc12 | 95.3
O=S(=O)(NCCNC/C=C/c1ccc(Br)cc1)c1cccc2cnccc12 | 75.4

biological target: SRPK1 (human) (UniProt Q96SB4); assay: as above; details: compound 0.5 µM; ATP 10 µM

SMILES | residual activity [%]
N#C/C(=C1/Nc2ccccc2S1)c1ccnc(NCCc2cccnc2)n1 | 97
COc1cc2c(Nc3ccc(Br)cc3F)ncnc2cc1OCC1CCN(C)CC1 | 97.9
N/C(=N\N=C/c1ccc(-c2cccc([N+](=O)[O-])c2)o1)N[N+](=O)[O-] | 94.9
CCCCc1c(-c2ccc(O)cc2)[nH]c2nccnc12 | 101

biological target: STK10 (human) (UniProt O94804); assay: as above; details: compound 0.5 µM; ATP 10 µM

SMILES | residual activity [%]
N#C/C(=C1/Nc2ccccc2S1)c1ccnc(NCCc2cccnc2)n1 | 86.3
COc1cc2c(Nc3ccc(Br)cc3F)ncnc2cc1OCC1CCN(C)CC1 | 21.3
N/C(=N\N=C/c1ccc(-c2cccc([N+](=O)[O-])c2)o1)N[N+](=O)[O-] | 99.6
CCCCc1c(-c2ccc(O)cc2)[nH]c2nccnc12 | 82.8
O=S(=O)(NCCNC/C=C/c1ccc(Br)cc1)c1cccc2cnccc12 | 89.2

biological target: CSNK2A1 (human) (UniProt P68400); assay: as above; details: compound 0.5 µM; ATP 10 µM
Sequence (P68400 whole entry, looked up): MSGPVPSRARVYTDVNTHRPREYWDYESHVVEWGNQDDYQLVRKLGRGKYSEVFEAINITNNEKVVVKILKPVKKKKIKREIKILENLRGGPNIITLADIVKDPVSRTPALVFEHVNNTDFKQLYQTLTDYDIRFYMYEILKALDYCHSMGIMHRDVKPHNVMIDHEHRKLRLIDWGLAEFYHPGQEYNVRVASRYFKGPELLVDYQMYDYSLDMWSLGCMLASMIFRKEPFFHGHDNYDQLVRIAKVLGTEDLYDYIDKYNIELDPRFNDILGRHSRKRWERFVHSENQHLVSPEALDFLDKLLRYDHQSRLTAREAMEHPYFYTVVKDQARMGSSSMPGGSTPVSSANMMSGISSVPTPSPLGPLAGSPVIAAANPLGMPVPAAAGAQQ

SMILES | residual activity [%]
N#C/C(=C1/Nc2ccccc2S1)c1ccnc(NCCc2cccnc2)n1 | 22.1
COc1cc2c(Nc3ccc(Br)cc3F)ncnc2cc1OCC1CCN(C)CC1 | 112
N/C(=N\N=C/c1ccc(-c2cccc([N+](=O)[O-])c2)o1)N[N+](=O)[O-] | 91
CCCCc1c(-c2ccc(O)cc2)[nH]c2nccnc12 | 95.9
O=S(=O)(NCCNC/C=C/c1ccc(Br)cc1)c1cccc2cnccc12 | 97.8

Source: the kinase profiling compilation of Christmann-Franck et al. (2016)
